Experimental data taken from the supplement of paper PMC10307832.

Key:
Test in all cases: relative viability (nuclei count vs DMSO), 5 days (fraction); higher = more cells survive
RERF-LC-KJ = test system: RERF-LC-KJ
How it was run: (§1)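 Values are medians from duplicate plates. Each reflects relative viability, defined as the nuclei count of treated wells over that of vehicle wells. Lung cancer cell lines in 1536-well plates were pin-tool dosed one day after seeding with one drug alone or with a fixed anchor-drug dose plus five library-drug doses (not always all listed) in √10 steps, then fixed, stained and imaged at 4× after 5 days.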

NCI-H2126 = test system: NCI-H2126
How it was run: as §1

NCI-H1666 = test system: NCI-H1666
How it was run: as §1

COR-L 105 = test system: COR-L 105
How it was run: as §1

NCI-H520 = test system: NCI-H520
How it was run: as §1

NCI-H522 = test system: NCI-H522
How it was run: as §1

NCI-H661 = test system: NCI-H661
How it was run: as §1

ChaGo-K-1 = test system: ChaGo-K-1
How it was run: as §1

NCI-H23 = test system: NCI-H23
How it was run: as §1

NCI-H650 = test system: NCI-H650
How it was run: as §1

NCI-H647 = test system: NCI-H647
How it was run: as §1

NCI-H2347 = test system: NCI-H2347
How it was run: as §1

NCI-H1915 = test system: NCI-H1915
How it was run: as §1

PC-14 = test system: PC-14
How it was run: as §1

LC-2-ad = test system: LC-2-ad
How it was run: as §1

HCC-78 = test system: HCC-78
How it was run: as §1

201T = test system: 201T
How it was run: as §1

EPLC-272H = test system: EPLC-272H
How it was run: as §1

LCLC-97TM1 = test system: LCLC-97TM1
How it was run: as §1

NCI-H2405 = test system: NCI-H2405
How it was run: as §1

HCC-827 = test system: HCC-827
How it was run: as §1

NCI-H2087 = test system: NCI-H2087
How it was run: as §1

NCI-H322M = test system: NCI-H322M
How it was run: as §1

H3255 = test system: H3255
How it was run: as §1

## CC(C)Oc1cc(Nc2nc(N[C@@H](C)c3ccc(F)cn3)ncc2Cl)n[nH]1 [AZ23] + Cc1nc(Nc2ncc(C(=O)Nc3c(C)cccc3Cl)s2)cc(N2CCN(CCO)CC2)n1 [Dasatinib] (partner 0.075 µM)
RERF-LC-KJ; first compound 0.01 µM
  relative viability: 0.91
RERF-LC-KJ; first compound 0.03162 µM
  relative viability: 0.948
RERF-LC-KJ; first compound 0.3162 µM
  relative viability: 0.891
NCI-H2126; first compound 0.01 µM
  relative viability: 0.573
NCI-H2126; first compound 0.03162 µM
  relative viability: 0.715
NCI-H2126; first compound 0.3162 µM
  relative viability: 0.56
NCI-H1666; first compound 0.01 µM
  relative viability: 0.891
NCI-H1666; first compound 0.03162 µM
  relative viability: 0.927
NCI-H1666; first compound 0.3162 µM
  relative viability: 0.809
COR-L 105; first compound 0.01 µM
  relative viability: 0.339
COR-L 105; first compound 0.03162 µM
  relative viability: 0.374
COR-L 105; first compound 0.3162 µM
  relative viability: 0.341
NCI-H520; first compound 0.01 µM
  relative viability: 0.194
NCI-H520; first compound 0.03162 µM
  relative viability: 0.24
NCI-H520; first compound 0.3162 µM
  relative viability: 0.162
NCI-H522; first compound 0.01 µM
  relative viability: 0.716
NCI-H522; first compound 0.03162 µM
  relative viability: 0.933
NCI-H522; first compound 0.3162 µM
  relative viability: 1.02
NCI-H661; first compound 0.01 µM
  relative viability: 0.948
NCI-H661; first compound 0.03162 µM
  relative viability: 1.02
NCI-H661; first compound 0.3162 µM
  relative viability: 0.847
ChaGo-K-1; first compound 0.01 µM
  relative viability: 0.687
ChaGo-K-1; first compound 0.03162 µM
  relative viability: 0.627
ChaGo-K-1; first compound 0.3162 µM
  relative viability: 0.566
NCI-H23; first compound 0.03162 µM
  relative viability: 0.883
NCI-H23; first compound 0.3162 µM
  relative viability: 0.761
NCI-H650; first compound 0.01 µM
  relative viability: 0.441
NCI-H650; first compound 0.03162 µM
  relative viability: 0.46
NCI-H650; first compound 0.3162 µM
  relative viability: 0.48
NCI-H647; first compound 0.01 µM
  relative viability: 0.174
NCI-H647; first compound 0.03162 µM
  relative viability: 0.215
NCI-H647; first compound 0.3162 µM
  relative viability: 0.17
NCI-H2347; first compound 0.01 µM
  relative viability: 0.235
NCI-H2347; first compound 0.03162 µM
  relative viability: 0.298
NCI-H2347; first compound 0.3162 µM
  relative viability: 0.274
NCI-H1915; first compound 0.01 µM
  relative viability: 0.33
NCI-H1915; first compound 0.03162 µM
  relative viability: 0.342
NCI-H1915; first compound 0.3162 µM
  relative viability: 0.29
PC-14; first compound 0.03162 µM
  relative viability: 0.273
PC-14; first compound 0.3162 µM
  relative viability: 0.246
LC-2-ad; first compound 0.01 µM
  relative viability: 0.569
LC-2-ad; first compound 0.03162 µM
  relative viability: 0.588
LC-2-ad; first compound 0.3162 µM
  relative viability: 0.564
HCC-78; first compound 0.01 µM
  relative viability: 0.323
HCC-78; first compound 0.03162 µM
  relative viability: 0.381
HCC-78; first compound 0.3162 µM
  relative viability: 0.328
201T; first compound 0.01 µM
  relative viability: 0.506
201T; first compound 0.03162 µM
  relative viability: 0.614
201T; first compound 0.3162 µM
  relative viability: 0.569
EPLC-272H; first compound 0.01 µM
  relative viability: 0.38
EPLC-272H; first compound 0.03162 µM
  relative viability: 0.305
EPLC-272H; first compound 0.3162 µM
  relative viability: 0.273
LCLC-97TM1; first compound 0.01 µM
  relative viability: 0.924
LCLC-97TM1; first compound 0.03162 µM
  relative viability: 0.889
LCLC-97TM1; first compound 0.3162 µM
  relative viability: 0.829
NCI-H2405; first compound 0.01 µM
  relative viability: 0.225
NCI-H2405; first compound 0.03162 µM
  relative viability: 0.23
NCI-H2405; first compound 0.3162 µM
  relative viability: 0.215
HCC-827; first compound 0.01 µM
  relative viability: 0.301
HCC-827; first compound 0.03162 µM
  relative viability: 0.288
HCC-827; first compound 0.3162 µM
  relative viability: 0.282
NCI-H2087; first compound 0.01 µM
  relative viability: 1.29
NCI-H2087; first compound 0.03162 µM
  relative viability: 1.04
NCI-H2087; first compound 0.3162 µM
  relative viability: 0.751
NCI-H322M; first compound 0.03162 µM
  relative viability: 0.255
NCI-H322M; first compound 0.3162 µM
  relative viability: 0.256
H3255; first compound 0.01 µM
  relative viability: 0.364
H3255; first compound 0.03162 µM
  relative viability: 0.66
H3255; first compound 0.3162 µM
  relative viability: 0.418

## CC(C)Oc1cc(Nc2nc(N[C@@H](C)c3ccc(F)cn3)ncc2Cl)n[nH]1 [AZ23] + N=C(N)NC(=N)NCCc1ccccc1 [Phenformin] (partner 250 µM)
RERF-LC-KJ; first compound 0.01 µM
  relative viability: 0.455
RERF-LC-KJ; first compound 0.03162 µM
  relative viability: 0.457
RERF-LC-KJ; first compound 0.3162 µM
  relative viability: 0.463
NCI-H2126; first compound 0.01 µM
  relative viability: 0.51
NCI-H2126; first compound 0.03162 µM
  relative viability: 0.539
NCI-H2126; first compound 0.3162 µM
  relative viability: 0.532
NCI-H1666; first compound 0.01 µM
  relative viability: 0.566
NCI-H1666; first compound 0.03162 µM
  relative viability: 0.802
NCI-H1666; first compound 0.3162 µM
  relative viability: 0.538
COR-L 105; first compound 0.01 µM
  relative viability: 0.456
COR-L 105; first compound 0.03162 µM
  relative viability: 0.577
COR-L 105; first compound 0.3162 µM
  relative viability: 0.508
NCI-H520; first compound 0.01 µM
  relative viability: 0.508
NCI-H520; first compound 0.03162 µM
  relative viability: 0.643
NCI-H520; first compound 0.3162 µM
  relative viability: 0.23
NCI-H522; first compound 0.01 µM
  relative viability: 0.711
NCI-H522; first compound 0.03162 µM
  relative viability: 0.662
NCI-H522; first compound 0.3162 µM
  relative viability: 0.656
NCI-H661; first compound 0.01 µM
  relative viability: 0.293
NCI-H661; first compound 0.03162 µM
  relative viability: 0.257
NCI-H661; first compound 0.3162 µM
  relative viability: 0.241
ChaGo-K-1; first compound 0.01 µM
  relative viability: 0.497
ChaGo-K-1; first compound 0.03162 µM
  relative viability: 0.458
ChaGo-K-1; first compound 0.3162 µM
  relative viability: 0.529
NCI-H23; first compound 0.03162 µM
  relative viability: 0.89
NCI-H23; first compound 0.3162 µM
  relative viability: 0.783
NCI-H650; first compound 0.01 µM
  relative viability: 0.432
NCI-H650; first compound 0.03162 µM
  relative viability: 0.461
NCI-H650; first compound 0.3162 µM
  relative viability: 0.466
NCI-H647; first compound 0.01 µM
  relative viability: 0.558
NCI-H647; first compound 0.03162 µM
  relative viability: 0.797
NCI-H647; first compound 0.3162 µM
  relative viability: 0.604
NCI-H2347; first compound 0.01 µM
  relative viability: 0.341
NCI-H2347; first compound 0.03162 µM
  relative viability: 0.333
NCI-H2347; first compound 0.3162 µM
  relative viability: 0.455
NCI-H1915; first compound 0.01 µM
  relative viability: 0.4
NCI-H1915; first compound 0.03162 µM
  relative viability: 0.373
NCI-H1915; first compound 0.3162 µM
  relative viability: 0.372
PC-14; first compound 0.03162 µM
  relative viability: 0.781
PC-14; first compound 0.3162 µM
  relative viability: 0.703
LC-2-ad; first compound 0.01 µM
  relative viability: 0.544
LC-2-ad; first compound 0.03162 µM
  relative viability: 0.611
LC-2-ad; first compound 0.3162 µM
  relative viability: 0.528
HCC-78; first compound 0.01 µM
  relative viability: 0.692
HCC-78; first compound 0.03162 µM
  relative viability: 0.656
HCC-78; first compound 0.3162 µM
  relative viability: 0.583
201T; first compound 0.01 µM
  relative viability: 0.539
201T; first compound 0.03162 µM
  relative viability: 0.438
201T; first compound 0.3162 µM
  relative viability: 0.486
EPLC-272H; first compound 0.01 µM
  relative viability: 0.33
EPLC-272H; first compound 0.03162 µM
  relative viability: 0.302
EPLC-272H; first compound 0.3162 µM
  relative viability: 0.378
LCLC-97TM1; first compound 0.01 µM
  relative viability: 0.502
LCLC-97TM1; first compound 0.03162 µM
  relative viability: 0.485
LCLC-97TM1; first compound 0.3162 µM
  relative viability: 0.417
NCI-H2405; first compound 0.01 µM
  relative viability: 0.33
NCI-H2405; first compound 0.03162 µM
  relative viability: 0.429
NCI-H2405; first compound 0.3162 µM
  relative viability: 0.382
HCC-827; first compound 0.01 µM
  relative viability: 0.436
HCC-827; first compound 0.03162 µM
  relative viability: 0.42
HCC-827; first compound 0.3162 µM
  relative viability: 0.404
NCI-H2087; first compound 0.01 µM
  relative viability: 0.645
NCI-H2087; first compound 0.03162 µM
  relative viability: 0.449
NCI-H2087; first compound 0.3162 µM
  relative viability: 0.458
NCI-H322M; first compound 0.03162 µM
  relative viability: 0.903
NCI-H322M; first compound 0.3162 µM
  relative viability: 0.785
H3255; first compound 0.01 µM
  relative viability: 0.323
H3255; first compound 0.03162 µM
  relative viability: 0.364
H3255; first compound 0.3162 µM
  relative viability: 0.327
